“And” between values parts separate entries of the source, which are not always exact repeats. Equal values may be shown once. Toxic doses and inconclusive results are not listed.

T/C data for 13 compounds are collected here from PubChem BioAssay AID328 (DTP/NCI, 2004).

This test has as its system BDF1 mice, P388 leukemia ip, median survival T/C. In words: NCI In Vivo Anticancer Drug Screen. Data for tumor model P388 Leukemia (intraperitoneal) in B6D2F1 (BDF1) mice. The conditions noted are these: endpoint: median survival time, higher = longer survival. A digest of the protocol:
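Read-out is survival of treated animals expressed relative to the vehicle group, as a T/C ratio.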

[1] abbreviates: dose: 100.0 mg/kg/injection, schedule: Q04DX003 (ip), vehicle: saline with Tween-80.
Setting [2] is: dose: 200.0 mg/kg/injection, schedule: Q04DX003 (ip), vehicle: saline with Tween-80.

Take `O=C1C(N2CCN(CCO)CC2)=C(N2CC2)C(=O)C(N2CCN(CCO)CC2)=C1N1CC1`: the T/C is 241 % of control (dose: 0.25 mg/kg/injection, schedule: Q01DX009 (ip), vehicle: saline); 241 % of control and 249 % of control (dose: 0.5 mg/kg/injection, schedule: Q01DX009 (ip), vehicle: saline); 243 % of control (dose: 1.0 mg/kg/injection, schedule: Q01DX009 (ip), vehicle: saline); 116 % of control (dose: 2.0 mg/kg/injection, schedule: Q01DX009 (ip), vehicle: saline).
As for `CC(=O)NC(C(=O)N/N=C(\C)c1ccccc1)C(=O)N/N=C(\C)c1ccccc1`, the T/C is 98 % of control (dose: 50.0 mg/kg/injection, schedule: Q01DX009 (ip), vehicle: saline with Tween-80); 101 % of control (dose: 100.0 mg/kg/injection, schedule: Q01DX009 (ip), vehicle: saline with Tween-80); 89 % of control (dose: 200.0 mg/kg/injection, schedule: Q01DX009 (ip), vehicle: saline with Tween-80).
With `CC(=O)Nc1cc(C)no1`, the T/C is 90 % of control (dose: 100.0 mg/kg/injection, schedule: Q01DX009 (ip), vehicle: saline); 109 % of control (dose: 100.0 mg/kg/injection, schedule: Q04DX003 (ip), vehicle: saline); 95 % of control (dose: 200.0 mg/kg/injection, schedule: Q01DX009 (ip), vehicle: saline); 109 % of control (dose: 200.0 mg/kg/injection, schedule: Q04DX003 (ip), vehicle: saline); 100 % of control (dose: 400.0 mg/kg/injection, schedule: Q01DX009 (ip), vehicle: saline); 104 % of control (dose: 400.0 mg/kg/injection, schedule: Q04DX003 (ip), vehicle: saline).
In the case of `CCC(=O)O[C@H]1CC(=O)N(C)c2cc(cc(OC)c2Cl)C/C(C)=C/C=C[C@@H](OC)[C@@]2(O)C[C@H](OC(=O)N2)[C@@H](C)[C@H]2O[C@@]12C`, the T/C runs as follows: (dose: 0.8 micrograms/kg/injection, schedule: Q01DX009 (ip), vehicle: saline + alcohol) 170 % of control; (dose: 0.9 micrograms/kg/injection, schedule: Q01DX009 (ip), vehicle: saline + alcohol) 110 % of control; (dose: 1.5 micrograms/kg/injection, schedule: Q01DX009 (ip), vehicle: saline + alcohol) 173 % of control; (dose: 3.1 micrograms/kg/injection, schedule: Q01DX009 (ip), vehicle: saline + alcohol) 168 % of control; (dose: 6.2 micrograms/kg/injection, schedule: Q01DX009 (ip), vehicle: saline + alcohol) 170 % of control; (dose: 12.5 micrograms/kg/injection, schedule: Q01DX009 (ip), vehicle: saline + alcohol) 163 % of control and 183 % of control. Moreover, the T/C by setting is: (dose: 25.0 micrograms/kg/injection, schedule: Q01DX009 (ip), vehicle: saline + alcohol) 258 % of control and 153 % of control; (dose: 50.0 micrograms/kg/injection, schedule: Q01DX009 (ip), vehicle: saline + alcohol) 198 % of control and 223 % of control.
Consider `OC1c2ccccc2-c2ccccc2C1O` (stereo not given), for which the T/C is 153 % of control (dose: 200.0 mg/kg/injection, schedule: Q04DX002 (ip), vehicle: saline with Tween-80) and 155 % of control (dose: 400.0 mg/kg/injection, schedule: Q04DX002 (ip), vehicle: saline with Tween-80).
`CN(C)C(=O)c1cccc(COc2ccc(N3C(N)=NC(N)=NC3(C)C)cc2Cl)c1`: the T/C is 100 % of control (dose: 4.0 mg/kg/injection, schedule: Q03HX024 (ip), vehicle: saline); 100 % of control (dose: 8.0 mg/kg/injection, schedule: Q03HX016 (ip), vehicle: saline); 90 % of control (dose: 16.0 mg/kg/injection, schedule: Q01DX009 (ip), vehicle: saline); 100 % of control (dose: 16.0 mg/kg/injection, schedule: Q01DX009 (sc), vehicle: saline); 100 % of control (dose: 16.0 mg/kg/injection, schedule: Q03HX016 (ip), vehicle: saline); 118 % of control (dose: 16.0 mg/kg/injection, schedule: Q03HX024 (ip), vehicle: saline). Moreover, the T/C is, setting by setting: (dose: 32.0 mg/kg/injection, schedule: Q01DX009 (ip), vehicle: saline) 118 % of control; (dose: 32.0 mg/kg/injection, schedule: Q01DX009 (sc), vehicle: saline) 90 % of control; (dose: 32.0 mg/kg/injection, schedule: Q03HX016 (ip), vehicle: saline) 118 % of control; (dose: 32.0 mg/kg/injection, schedule: Q04DX003 (ip), vehicle: saline) 100 % of control; (dose: 64.0 mg/kg/injection, schedule: Q01DX001 (ip), vehicle: saline) 100 % of control; (dose: 64.0 mg/kg/injection, schedule: Q01DX001 (sc), vehicle: saline) 90 % of control. Besides, the T/C is 90 % of control (dose: 64.0 mg/kg/injection, schedule: Q01DX009 (oral), vehicle: saline); 100 % of control (dose: 64.0 mg/kg/injection, schedule: Q04DX003 (ip), vehicle: saline); 100 % of control (dose: 64.0 mg/kg/injection, schedule: Q08DX002 (ip), vehicle: saline); 90 % of control (dose: 128.0 mg/kg/injection, schedule: Q01DX001 (oral), vehicle: saline); 100 % of control (dose: 128.0 mg/kg/injection, schedule: Q01DX001 (sc), vehicle: saline); 95 % of control (dose: 128.0 mg/kg/injection, schedule: Q01DX009 (oral), vehicle: saline). In addition, the T/C (dose: 256.0 mg/kg/injection, schedule: Q01DX001 (oral), vehicle: saline) was 95 % of control; the T/C (dose: 256.0 mg/kg/injection, schedule: Q01DX001 (sc), vehicle: saline) was 90 % of control; the T/C (dose: 512.0 mg/kg/injection, schedule: Q01DX001 (oral), vehicle: saline) was 90 % of control; the T/C (dose: 512.0 mg/kg/injection, schedule: Q01DX001 (sc), vehicle: saline) was 100 % of control; the T/C (dose: 1024.0 mg/kg/injection, schedule: Q01DX001 (oral), vehicle: saline) is 95 % of control.
For the compound `c1cnc2sccc2c1`, the T/C was 100 % of control under setting [1] and 109 % of control under setting [2].
For the compound `CC(CCl)OC(C)CCl` (stereo not given), the T/C (dose: 100.0 mg/kg/injection, schedule: Q04DX002 (ip), vehicle: saline) was 106 % of control; the T/C (dose: 200.0 mg/kg/injection, schedule: Q04DX002 (ip), vehicle: saline) is 107 % of control; the T/C (dose: 400.0 mg/kg/injection, schedule: Q04DX002 (ip), vehicle: saline) is 107 % of control.
As to `N=[N+]=CC(=O)CC(N)C(=O)O` (stereo not given), the T/C by setting is: (dose: 100.0 mg/kg/injection, schedule: Q01DX001 (ip), vehicle: saline sonified) 95 % of control; (dose: 200.0 mg/kg/injection, schedule: Q01DX001 (ip), vehicle: saline sonified) 86 % of control; (dose: 400.0 mg/kg/injection, schedule: Q01DX001 (ip), vehicle: saline sonified) 95 % of control.
Turning to `CC1(C)N=C(N)N=C(N)N1c1ccc(CCc2ccccc2)c(Cl)c1`, the T/C (dose: 4.0 mg/kg/injection, schedule: Q01DX009 (ip), vehicle: saline with Tween-80) was 122 % of control.
Regarding `COC(=O)C1C(O)C(C)C(O)C(C)/C=C\C=C(C)C(=O)Nc2c(C)c(OC(C)=O)c3c(c2O)C(=O)C(C)=C2OCOC(=C23)C(C)=CC(C)(O)C(O)C(C)C1O` (stereo not given), the T/C by setting is: (dose: 100.0 mg/kg/injection, schedule: Q01DX009 (ip), vehicle: Klucel (hydroxypropylcellulose) (HPC)) 115 % of control; (dose: 200.0 mg/kg/injection, schedule: Q01DX009 (ip), vehicle: Klucel (hydroxypropylcellulose) (HPC)) 108 % of control and 115 % of control; (dose: 400.0 mg/kg/injection, schedule: Q01DX009 (ip), vehicle: Klucel (hydroxypropylcellulose) (HPC)) 106 % of control.
`Cc1cc(Cl)ccc1NS(=O)(=O)c1ccc(Br)cc1`: the T/C is, setting by setting: under setting [1], 90 % of control; under setting [2], 90 % of control; (dose: 400.0 mg/kg/injection, schedule: Q04DX003 (ip), vehicle: saline with Tween-80) 95 % of control.
For `CC(=O)OC12COC1CC(O)C1(C)C(=O)C(O)C3=C(C)C(O)CC(O)(C(OC(=O)c4ccccc4)C21)C3(C)C` (stereo not given), the T/C runs as follows: (dose: 2.0 mg/kg/injection, schedule: Q01DX009 (ip), vehicle: alcohol) 100 % of control; (dose: 4.0 mg/kg/injection, schedule: Q01DX009 (ip), vehicle: alcohol) 95 % of control; (dose: 8.0 mg/kg/injection, schedule: Q01DX009 (ip), vehicle: alcohol) 100 % of control; (dose: 16.0 mg/kg/injection, schedule: Q01DX009 (ip), vehicle: alcohol) 95 % of control.
